The values that follow come from US20060040957A1, “BICYCLIC PYRIMIDINE MATRIX METALLOPROTEINASE INHIBITORS” (priority 2001, published 2006).

pIC50: −log10 of the molar value. Where a name gives a salt, the structure may show the parent alone.

The first assay addresses MMP-13CD (catalytic domain of collagenase 3) (Homo sapiens, UniProt P45452). Briefly: Thiopeptolide substrate hydrolysis assay, MMP-13CD. The assay is classed as biochemical. Conditions: IC50 (μM) Versus Certain MMPs: MMP-13 CD, thiopeptolide substrate, HEPES pH 7.0, 22° C. From the text:
Thiopeptolide substrates show virtually no decomposition or hydrolysis at or below neutral pH in the absence of a matrix metalloproteinase enzyme.
With `Cc1c(=O)n(Cc2ccccc2)c(=O)n2cc(C(=O)NCc3cnn(C)c3)sc12` [Example 39, 6-Benzyl-8-methyl-5,7-dioxo-6,7-dihydro-5H-thiazolo[3,2-c]pyrimidine-2-carboxylic acid(1-methyl-1H-pyrazol-4-ylmethyl)-amide], the IC50 was 2.3 µM.
Still for that read-out and setting: the same measure for `C=C(C)Cn1c(=O)c(C)c2sc(C(=O)NCc3ccc(F)cc3)cn2c1=O` [Example 93, 8-Methyl-6-(2-methyl-allyl)-5,7-dioxo-6,7-dihydro-5H-thiazolo[3,2-c]pyrimidine-2-carboxylic acid 4-fluoro-benzylamide]: 1.55 µM; for `Cc1c(=O)n(Cc2ccccc2)c(=O)n2cc(C(=O)NCc3ccccn3)sc12` [Example 47, 6-Benzyl-8-methyl-5,7-dioxo-6,7-dihydro-5H-thiazolo[3,2-c]pyrimidine-2-carboxylic acid(pyridin-2-ylmethyl)-amide hydrochloride]: 9.9 µM.

Still in this assay, the particulars now being: running text after Table 1; read-out: IC50 inhibition of MMP-13CD.
Regarding `COC(=O)Nc1cc(Cn2c(=O)c(C)c3sc(C(=O)NCc4ccc(F)cc4)cn3c2=O)on1` [Example 111, {5-[2-(4-Fluoro-benzylcarbamoyl)-8-methyl-5,7-dioxo-7H-thiazolo[3,2-c]pyrimidine-6-ylmethyl]-isoxazol-3-yl}-carbamic acid methyl ester], the pIC50 was 6.77.

Still in this assay, the particulars now being: thiopeptolide substrate, HEPES pH 7.0, 22° C.
Consider `COC(=O)c1cn2c(=O)n(Cc3ccccc3)c(=O)c(C)c2s1` [Example 33a, 6-Benzyl-8-methyl-5,7-dioxo-6,7-dihydro-5H-thiazolo[3,2-c]pyrimidine-2-carboxylic acid methyl ester], for which the “IC50 (μM) Versus Certain MMPs: MMP-13 CD” value was “none”.

Staying with this assay, now noted: thiopeptolide substrate, HEPES pH 7.0, 22° C.; read-out: IC50 (μM) Versus Certain MMPs: MMP-13 CD.
With `Cc1c(=O)n(Cc2ccccc2)c(=O)n2cc(C(O)C=Cc3ccccc3)sc12` (stereo not shown) [Example 29, 6-Benzyl-2-(1-hydroxy-3-phenyl-allyl)-8-methyl-thiazolo[3,2-c]pyrimidine-5,7-dione], the IC50 amounted to 25 µM.
In the case of `Cc1c(=O)n(Cc2ccccc2)c(=O)n2cc(C(=O)NCc3ccc(Cl)cc3Cl)sc12` [Example 27, 6-Benzyl-8-methyl-5,7-dioxo-6,7-dihydro-5H-thiazolo[3,2-c]pyrimidine-2-carboxylic acid 2,4-dichloro-benzylamide], the IC50 was more than 30 µM.
`Cc1c(=O)n(CCS(=O)(=O)c2ccc(Cl)cc2)c(=O)n2cc(C(=O)NCc3ccncc3)sc12` [Example 83, 6-[2-(4-Chloro-benzenesulfonyl)-ethyl]-8-methyl-5,7-dioxo-6,7-dihydro-5H-thiazolo[3,2-c]pyrimidine-2-carboxylic acid(pyridin-4-ylmethyl)-amide hydrochloride]: the IC50 was 2.6 µM.
Take `Cc1nc(CNC(=O)c2cn3c(=O)n(Cc4ccccc4)c(=O)c(C)c3s2)cs1` [Example 52, 6-Benzyl-8-methyl-5,7-dioxo-6,7-dihydro-5H-thiazolo[3,2-c]pyrimidine-2-carboxylic acid(2-methyl-thiazol-4-ylmethyl)-amide hydrochloride]: the IC50 is more than 100 µM.
For `Cc1c(=O)n(Cc2ccccc2)c(=O)n2cc(C(=O)NCC3CCNCC3)sc12` [Example 45, 6-Benzyl-8-methyl-5,7-dioxo-6,7-dihydro-5H-thiazolo[3,2-c]pyrimidine-2-carboxylic acid(piperidin-4-ylmethyl)-amide hydrochloride], the 50% inhibitory concentration (IC50) is more than 100 µM.
Same read-out and setting: the same measure for `O=C(c1ccccc1)n1c(=O)cc2sccn2c1=O` [6-Benzoyl-thiazolo[3,2-c]pyrimidine-5,7-dione]: more than 100 µM.
Same read-out and setting: next, `Cc1c(=O)n(Cc2ccccc2)c(=O)n2cc(C(=O)NCC3CCCO3)sc12` (stereo not shown) [Example 110, 6-Benzyl-8-methyl-5,7-dioxo-6,7-dihydro-5H-thiazolo[3,2-c]pyrimidine-2-carboxylic acid(tetrahydro-furan-2-ylmethyl)-amide]: 54 µM.
On the same count and under the same terms, the same measure for `Cc1c(=O)n(Cc2ccccc2)c(=O)n2cc(C(=S)NCc3ccccc3)sc12` [Example 24, 6-Benzyl-8-methyl-5,7-dioxo-6,7-dihydro-5H-thiazolo[3,2-c]pyrimidine-2-carbothioic acid benzylamide]: more than 30 µM; for `Cc1c(=O)n(Cc2ccccc2)c(=O)n2cc(C(=O)NCc3cscn3)sc12` [Example 35, 6-Benzyl-8-methyl-5,7-dioxo-6,7-dihydro-5H-thiazolo[3,2-c]pyrimidine-2-carboxylic acid(thiazol-4-ylmethyl)-amide hydrochloride]: more than 100 µM.
Consider `Cc1c(=O)n(CCCCCC#N)c(=O)n2cc(C(=O)NCc3ccc(F)cc3)sc12` [Example 89, 6-(5-Cyano-pentyl)-8-methyl-5,7-dioxo-6,7-dihydro-5H-thiazolo[3,2-c]pyrimidine-2-carboxylic acid 4-fluoro-benzylamide], for which the IC50 turned out to be 1.08 µM.
Same read-out and setting: next, `C#CCNC(=O)c1cn2c(=O)n(Cc3ccccc3)c(=O)c(C)c2s1` [Example 40, 6-Benzyl-8-methyl-5,7-dioxo-6,7-dihydro-5H-thiazolo[3,2-c]pyrimidine-2-carboxylic acid prop-2-ynylamide]: more than 100 µM; `CCC(CC)n1c(=O)c(C)c2sc(C(=O)NCc3ccc(F)cc3)cn2c1=O` [Example 94, 6-(1-Ethyl-propyl)-8-methyl-5,7-dioxo-6,7-dihydro-5H-thiazolo[3,2-c]pyrimidine-2-carboxylic acid 4-fluoro-benzylamide]: more than 30 µM.
Same read-out and setting: next, `Cc1c(=O)n(Cc2ccc(S(=O)(=O)N3CCOCC3)cc2)c(=O)n2ccsc12` [Example 108, 8-Methyl-6-[4-(morpholine-4-sulfonyl)-benzyl]-thiazolo[3,2-c]pyrimidine-5,7-dione]: more than 100 µM; `O=c1cc2sc(C(O)c3ccccc3)cn2c(=O)n1Cc1ccccc1` (stereo not shown) [Example 7, 6-Benzyl-2-(hydroxy-phenyl-methyl)-thiazolo[3,2-c]pyrimidine-5,7-dione]: 32 µM; `Cc1c(=O)n(CCS(=O)(=O)c2ccccc2)c(=O)n2cc(C(=O)NCc3ccc(F)cc3)sc12` [Example 96, 6-(2-Benzenesulfonyl-ethyl)-8-methyl-5,7-dioxo-6,7-dihydro-5H-thiazolo[3,2-c]pyrimidine-2-carboxylic acid 4-fluoro-benzylamide]: 1.2 µM.
Still for that read-out and setting: next, `Cc1c(=O)n(C(C)c2ccccc2)c(=O)n2cc(C(=O)NCc3ccc(F)cc3)sc12` (stereo not shown) [Example 87, 8-Methyl-5,7-dioxo-6-(1-phenyl-ethyl)-6,7-dihydro-5H-thiazolo[3,2-c]pyrimidine-2-carboxylic acid 4-fluoro-benzylamide]: 2.1 µM.
As to `O=c1cc2sccn2c(=O)n1Cc1ccncc1` [6-(4-Pyridylmethyl)-thiazolo[3,2-c]pyrimidine-5,7,dione], the IC50 was more than 100 µM.
`Cc1c(=O)n(Cc2ccccc2)c(=O)n2cc(C(=O)O)sc12` [Example 33, 6-Benzyl-8-methyl-5,7-dioxo-6,7-dihydro-5H-thiazolo[3,2-c]pyrimidine-2-carboxylic acid]: the IC50 was more than 100 µM.
Turning to `Cc1c(=O)n(Cc2ccccc2)c(=O)n2cc(C(O)C#Cc3ccccc3)sc12` (stereo not shown) [Example 31, 6-Benzyl-2-(1-hydroxy-3-phenyl-prop-2-ynyl)-8-methyl-thiazolo[3,2-c]pyrimidine-5,7-dione], the IC50 was more than 30 µM.
On the same count and under the same terms, the same measure for `COC(=O)c1sc2cc(=O)n(Cc3ccccc3)c(=O)n2c1C` [Example 26, 6-Benzyl-3-methyl-5,7-dioxo-6,7-dihydro-5H-thiazolo[3,2-c]pyrimidine-2-carboxylic acid methyl ester]: more than 100 µM; for `Cc1c(=O)n(CCNC(=O)c2ccccc2)c(=O)n2cc(C(=O)NCc3ccc(F)cc3)sc12` [Example 100, 6-(2-Benzoylamino-ethyl)-8-methyl-5,7-dioxo-6,7-dihydro-5H-thiazolo[3,2-c]pyrimidine-2-carboxylic acid 4-fluoro-benzylamide]: 10 µM; for `Cc1c(=O)n(Cc2nn[nH]n2)c(=O)n2cc(C(=O)NCc3ccc(F)cc3)sc12` [Example 66, 8-Methyl-5,7-dioxo-6-(2H-tetrazol-5-ylmethyl)-6,7-dihydro-5H-thiazolo[3,2-c]pyrimidine-2-carboxylic acid 4-fluoro-benzylamide]: 14 µM.
Still for that read-out and setting: next, `Cc1c(=O)n(CCC(=O)c2ccccc2)c(=O)n2cc(C(=O)NCc3ccc(F)cc3)sc12` [Example 86, 8-Methyl-5,7-dioxo-6-(3-oxo-3-phenyl-propyl)-6,7-dihydro-5H-thiazolo[3,2-c]pyrimidine-2-carboxylic acid 4-fluoro-benzylamide]: 0.35 µM.

As usually defined, the IC50 is the concentration that gives 50% inhibition. One may read the pIC50 as the negative decadic logarithm of the IC50, by convention in mol/L.
